Laboratory results as given in patent US8916573B2, “Quinazoline-2,4-dione derivatives” (Actelion Pharmaceuticals Ltd., priority 2011, dated 2014).
In brackets after ≈: the same amount, converted by molar mass.

System: S. aureus 29213
Assay: Bacterial growth minimal inhibitory concentrations (microdilution, cation-adjusted Mueller-Hinton Broth, CLSI M7-A7)
Assay type: cell-based
Conditions: Staphylococcus aureus, 29213; microdilution in cation-adjusted Mueller-Hinton Broth
Description: Bacterial Growth Minimal Inhibitory Concentrations: Minimal inhibitory concentrations (MICs; mg/l) were determined in cation-adjusted MuellerHinton Broth by a microdilution method following the description given in “Methods for Dilution Antimicrobial Susceptibility Tests for Bacteria that Grow Aerobically”, Approved standard, 7th ed., Clinical and Laboratory Standards Institute (CLSI) Document M7-A7, Wayne, Pa., USA, 2006. Typical antibacterial test results are given in Table 1 hereafter (MIC in mg/l).

SMILES | MIC
O=C1CSc2ccc(N3C[C@@H](CCCn4c(=O)[nH]c5cc(Cl)ccc5c4=O)OC3=O)cc2N1 [Example 27, 7-chloro-3-{3-[(R)-2-oxo-3-(3-oxo-3,4-dihydro-2H-benzo[1,4]-thiazin-6-yl)-oxazolidin-5-yl]-propyl}-1H-quinazoline-2,4-dione] | 0.063 µg/mL (≈ 0.129 µM)
Cn1c(=O)n(CCCC[C@@H]2CN(c3ccc4c(n3)NC(=O)CO4)C(=O)O2)c(=O)c2ccccc21 [Example 52, 1-methyl-3-{4-[(R)-2-oxo-3-(3-oxo-3,4-dihydro-2H-pyrido[3,2-b][1,4]oxazin-6-yl)-oxazolidin-5-yl]-butyl}-1H-quinazoline-2,4-dione] | 0.063 µg/mL (≈ 0.135 µM)
O=C1CSc2ccc(N3C[C@@H](CCCn4c(=O)[nH]c5c(F)cccc5c4=O)OC3=O)cc2N1 [Example 32, 8-fluoro-3-{3-[(R)-2-oxo-3-(3-oxo-3,4-dihydro-2H-benzo[1,4]thiazin-6-yl)-oxazolidin-5-yl]-propyl}-1H-quinazoline-2,4-dione] | 0.031 µg/mL (≈ 0.0659 µM)
Cc1cccc2c1c(=O)n(CCC[C@H]1CN(c3ccc4c(c3)NC(=O)CS4)C(=O)O1)c(=O)n2C [Example 6, 1,5-dimethyl-3-{3-[(S)-2-oxo-3-(3-oxo-3,4-dihydro-2H-benzo[1,4]-thiazin-6-yl)-oxazolidin-5-yl]-propyl}-1H-quinazoline-2,4-dione] | 0.031 µg/mL (≈ 0.0645 µM)
O=C1CSc2ccc(N3C[C@H](CCCn4c(=O)[nH]c5ccc(N6CCCC6)cc5c4=O)OC3=O)cc2N1 [Example 37, 3-{3-[(S)-2-oxo-3-(3-oxo-3,4-dihydro-2H-benzo[1,4]-thiazin-6-yl)-oxazolidin-5-yl]-propyl}-6-pyrrolidin-1-yl-1H-quinazoline-2,4-dione] | 0.5 µg/mL (≈ 0.959 µM)
O=C1CSc2ccc(N3C[C@@H](CCCn4c(=O)[nH]c5cc(F)ccc5c4=O)OC3=O)cc2N1 [Example 28, 7-fluoro-3-{3-[(R)-2-oxo-3-(3-oxo-3,4-dihydro-2H-benzo[1,4]thiazin-6-yl)-oxazolidin-5-yl]-propyl}-1H-quinazoline-2,4-dione] | 0.063 µg/mL (≈ 0.134 µM)
COc1cc2[nH]c(=O)n(CCC[C@@H]3CN(c4ccc5c(c4)NC(=O)CS5)C(=O)O3)c(=O)c2cc1OC [Example 39, 6,7-dimethoxy-3-{3-[(R)-2-oxo-3-(3-oxo-3,4-dihydro-2H-benzo[1,4]thiazin-6-yl)-oxazolidin-5-yl]-propyl}-1H-quinazoline-2,4-dione] | 0.25 µg/mL (≈ 0.488 µM)
Cc1cccc2[nH]c(=O)n(CCC[C@@H]3CN(c4ccc5c(n4)NC(=O)CO5)C(=O)O3)c(=O)c12 [Example 9, 5-methyl-3-{3-[(R)-2-oxo-3-(3-oxo-3,4-dihydro-2H-pyrido[3,2-b][1,4]oxazin-6-yl)-oxazolidin-5-yl]-propyl}-1H-quinazoline-2,4-dione] | 0.031 µg/mL (≈ 0.0687 µM)
Cn1c(=O)n(C[C@H](O)CC[C@@H]2CN(c3ccc4c(c3)NC(=O)CO4)C(=O)O2)c(=O)c2ccccc21 (racemic) [Example 49, 3-{(RS)-2-hydroxy-4-[(RS)-2-oxo-3-(3-oxo-3,4-dihydro-2H-benzo[1,4]oxazin-6-yl)-oxazolidin-5-yl]-butyl}-1-methyl-1H-quinazoline-2,4-dione] | 1 µg/mL (≈ 2.08 µM)
O=C1CSc2ccc(N3C[C@@H](CCCn4c(=O)[nH]c5cccc(F)c5c4=O)OC3=O)cc2N1 [Example 17, 5-fluoro-3-{3-[(R)-2-oxo-3-(3-oxo-3,4-dihydro-2H-benzo[1,4]thiazin-6-yl)-oxazolidin-5-yl]-propyl}-1H-quinazoline-2,4-dione] | 0.125 µg/mL (≈ 0.266 µM)
O=C1CSc2ccc(N3C[C@@H](CNCCn4c(=O)[nH]c5ccccc5c4=O)OC3=O)cc2N1 [Example 54, 3-(2-{[(R)-2-oxo-3-(3-oxo-3,4-dihydro-2H-benzo[1,4]thiazin-6-yl)-oxazolidin-5-ylmethyl]-amino}-ethyl)-1H-quinazoline-2,4-dione] | 1 µg/mL (≈ 2.14 µM)

The remaining lines, values ahead:

MIC | SMILES
0.031 µg/mL (≈ 0.0657 µM) | O=C1COc2ccc(N3C[C@@H](CCCn4c(=O)[nH]c5c(Cl)cccc5c4=O)OC3=O)nc2N1 [Example 23, 8-chloro-3-{3-[(R)-2-oxo-3-(3-oxo-3,4-dihydro-2H-pyrido[3,2-b][1,4]oxazin-6-yl)-oxazolidin-5-yl]-propyl}-1H-quinazoline-2,4-dione]
0.031 µg/mL | Cn1c(=O)n(CCNC[C@@H]2CN(c3ccc4c(n3)NC(=O)CS4)C(=O)O2)c(=O)c2ccccc21.O=CO [Example 55, 1-methyl-3-(2-{[(R)-2-oxo-3-(3-oxo-3,4-dihydro-2H-pyrido[3,2-b][1,4]thiazin-6-yl)-oxazolidin-5-ylmethyl]-amino}-ethyl)-1H-quinazoline-2,4-dione formate salt]
0.031 µg/mL (≈ 0.0659 µM) | O=C1CSc2ccc(N3C[C@@H](CCCn4c(=O)[nH]c5ccc(F)cc5c4=O)OC3=O)cc2N1 [Example 26, 6-fluoro-3-{3-[(R)-2-oxo-3-(3-oxo-3,4-dihydro-2H-benzo[1,4]thiazin-6-yl)-oxazolidin-5-yl]-propyl}-1H-quinazoline-2,4-dione]
≤ 0.016 µg/mL | Cc1cccc2[nH]c(=O)n(CCC[C@H]3CN(c4ccc5c(n4)NC(=O)CS5)C(=O)O3)c(=O)c12 [Example 8, 5-methyl-3-{3-[(S)-2-oxo-3-(3-oxo-3,4-dihydro-2H-pyrido[3,2-b][1,4]thiazin-6-yl)-oxazolidin-5-yl]-propyl}-1H-quinazoline-2,4-dione]
≤ 0.016 µg/mL | O=C1COc2ccc(N3C[C@H](CCCn4c(=O)c5cccc6c5n(c4=O)CCC6)OC3=O)nc2N1 [Example 45, 2-{3-[(S)-2-oxo-3-(3-oxo-3,4-dihydro-2H-pyrido[3,2-b][1,4]oxazin-6-yl)-oxazolidin-5-yl]-propyl}-6,7-dihydro-5H-pyrido[3,2,1-ij]quinazoline-1,3-dione]
≤ 0.016 µg/mL | Cc1cccc2[nH]c(=O)n(CCC[C@H]3CN(c4ccc5c(c4)NC(=O)CS5)C(=O)O3)c(=O)c12 [Example 7, 5-methyl-3-{3-[(S)-2-oxo-3-(3-oxo-3,4-dihydro-2H-benzo[1,4]-thiazin-6-yl)-oxazolidin-5-yl]-propyl}-1H-quinazoline-2,4-dione]
≤ 0.016 µg/mL | O=C1CSc2ccc(N3C[C@@H](CCCn4c(=O)[nH]c5c(Cl)cccc5c4=O)OC3=O)cc2N1 [Example 21, 8-chloro-3-{3-[(R)-2-oxo-3-(3-oxo-3,4-dihydro-2H-benzo[1,4]thiazin-6-yl)-oxazolidin-5-yl]-propyl}-1H-quinazoline-2,4-dione]
≤ 0.016 µg/mL | Cn1c(=O)n(CCC[C@H]2CN(c3ccc4c(c3)NC(=O)CS4)C(=O)O2)c(=O)c2ccccc21 [Example 3, 1-methyl-3-{3-[(S)-2-oxo-3-(3-oxo-3,4-dihydro-2H-benzo[1,4]-thiazin-6-yl)-oxazolidin-5-yl]-propyl}-1H-quinazoline-2,4-dione]
≤ 0.016 µg/mL | O=C1CSc2ccc(N3C[C@H](CCCn4c(=O)[nH]c5cccc(Cl)c5c4=O)OC3=O)nc2N1 [Example 19, 5-chloro-3-{3-[(S)-2-oxo-3-(3-oxo-3,4-dihydro-2H-pyrido[3,2-b][1,4]thiazin-6-yl)-oxazolidin-5-yl]-propyl}-1H-quinazoline-2,4-dione]
≤ 0.016 µg/mL | O=C1CSc2ccc(N3C[C@H](CCCn4c(=O)c5cccc6c5n(c4=O)CCC6)OC3=O)cc2N1 [Example 44, 2-{3-[(S)-2-oxo-3-(3-oxo-3,4-dihydro-2H-benzo[1,4]thiazin-6-yl)-oxazolidin-5-yl]-propyl}-6,7-dihydro-5H-pyrido[3,2,1-ij]quinazoline-1,3-dione]
